Experimental data reported in patent publication US10435406B2, “6,7-cyclicmorphinan derivatives and use thereof” (Purdue Pharma L.P., priority 2014, dated 2019).

How the values were obtained:
[1] = target: T1, μ-opioid receptor (Homo sapiens (Human), UniProt P35372); assay: μ-opioid receptor [35S]GTPγS functional assay (U-2 OS); format: biochemical; conditions: for Emax: U2OS, GTPγS, relative to DAMGO
Description: (§1) [^35S]GTPγS functional assays were conducted using freshly thawed μ-receptor membranes prepared in-house from a cell line expressing recombinant μ opioid receptor in a HEK-293, CHO or U-2 OS cell background, or purchased from a commercial source (Perkin Elmer, Shelton, Conn.; or DiscovRx, Fremont, Calif.). Assay reactions were prepared by sequentially adding the following reagents to binding buffer (100 mM NaCl, 10 mM MgCl2, 20 mM HEPES, pH 7.4) on ice (final concentrations indicated): membrane protein (0.026 mg/mL), saponin ([…]), GDP ([…]) and [^35S]GTPγS (0.20 nM; Perkin Elmer, Shelton, Conn.). The prepared membrane solution (190 μl/well) was transferred to 96-shallow well polypropylene plates containing 10 μl of 20× concentrated stock solutions of the agonist [D-Ala^2, N-methyl-Phe^4 Gly-ol^5]-enkephalin (DAMGO) prepared in dimethyl sulfoxide (DMSO). Plates were incubated for […] at about 25° C. with shaking. Reactions were terminated by rapid filtration onto 96-well Unifilter GF/B filter plates (Perkin Elmer, Shelton, Conn.) using a 96-well tissue harvester (Perkin Elmer, Shelton, Conn.) followed by three filtration washes with 200 μl of ice-cold wash buffer (10 mM NaH2PO4, 10 mM Na2HPO4, pH 7.4). Filter plates were subsequently dried at 50° C. for 2-3 hours. BetaScint scintillation cocktail (Perkin Elmer, Shelton, Conn.) was added (50 μl/well) and plates were counted using a Packard Top-Count for 1 min/well. Data were analyzed using the sigmoidal dose-response curve fitting functions in GraphPad PRISM v. 3.0, or an in-house function for non-linear, sigmoidal dose-response curve-fitting.
(§2) μ GTP EC50 is the concentration of a compound providing 50% of the maximal response for the compound at a μ-opioid receptor.
(§3) μ GTP Emax (%) is the maximal effect elicited by a compound relative to the effect elicited by DAMGO, a standard agonist. Generally, the μ GTP Emax (%) value measures the efficacy of a compound to treat or prevent pain or other Conditions.
(§4) In TABLE 4, activity response of certain Compounds of the Invention to the μ- and κ-opioid receptors was determined as described above for functional assays using U-2 OS cells.

[2] = target: T1, μ-opioid receptor; assay: μ-opioid receptor [35S]GTPγS functional assay (HEK); format: biochemical; conditions: for Emax: HEK, GTPγS, relative to DAMGO
Description: as §1, §2, §3
(§5) In TABLE 3, activity response of certain Compounds of the Invention to the μ- and κ-opioid receptors was determined as described above for functional assays using HEK cells.

[3] = target: T2, κ opioid receptor (Homo sapiens (Human), UniProt P41145); assay: κ-opioid receptor radioligand dose-displacement binding assay (HEK); conditions: HEK cells; [3H]-U69,593
Description: Membranes from recombinantHEK-293 cells, CHO or U-2 OS cells expressing the recombinant human κ opioid receptor (κ) were prepared by lysing cells in ice cold hypotonic buffer (2.5 mM MgCl2, 50 mM HEPES, pH 7.4) (10 mL/10 cm dish) followed by homogenization with a tissue grinder/Teflon pestle. Membranes were collected by centrifugation at 30,000×g for 15 min at 4° C. and pellets were resuspended in hypotonic buffer to a final concentration of 1-3 mg/mL. Protein concentrations were determined using the BioRad protein assay reagent with bovine serum albumen as standard. Aliquots of κ receptor membranes were stored at −80° C.
Radioligand dose displacement assays used 0.4 nM [^3H]-U69,593 (GE Healthcare, Piscataway, N.J.; 40 Ci/mmole) with 15 μg membrane protein (recombinant κ opioid receptor expressed in HEK 293 cells; in-house prep) in a final volume of 200 μl binding buffer (5% DMSO, 50 mM Trizma base, pH 7.4). Non-specific binding was determined in the presence of 10 μM unlabeled naloxone or U69,593. All reactions were performed in 96-well polypropylene plates for 1 hour at a temperature of about 25° C. Binding reactions were terminated by rapid filtration onto 96-well Unifilter GF/C filter plates (Perkin Elmer, Shelton, Conn.) presoaked in 0.5% polyethylenimine (Sigma). Harvesting was performed using a 96-well tissue harvester (Perkin Elmer, Shelton, Conn.) followed by five filtration washes with 200 μl ice-cold binding buffer. Filter plates were subsequently dried at 50° C. for 1-2 hours. Fifty μl/well scintillation cocktail (Perkin Elmer, Shelton, Conn.) was added and plates were counted in a Packard Top-Count for 1 min/well.
(§6) In TABLE 2, binding affinity of certain Compounds of the Invention to the μ- and κ-opioid receptors was determined as described above using HEK cells.

[4] = target: T2, κ opioid receptor; assay: κ-opioid receptor [35S]GTPγS functional assay (U-2 OS); format: biochemical; conditions: for Emax: U2OS, GTPγS, relative to U69,593
Description: (§7) Functional [^35S]GTPγS binding assays were conducted as follows. K opioid receptor membrane solution was prepared by sequentially adding final concentrations of 0.026 μg/μl membrane protein (in-house), 10 μg/mL saponin, 3 μM GDP and 0.20 nM [^35S]GTPγS to binding buffer (100 mM NaCl, 10 mM MgCl2, 20 mM HEPES, pH 7.4) on ice. The prepared membrane solution (190 μl/well) was transferred to 96-shallow well polypropylene plates containing 10 μl of 20× concentrated stock solutions of agonist prepared in DMSO. Plates were incubated for 30 min at a temperature of about 25° C. with shaking. Reactions were terminated by rapid filtration onto 96-well Unifilter GF/B filter plates (Perkin Elmer, Shelton, Conn.) using a 96-well tissue harvester (Packard) and followed by three filtration washes with 200 μl ice-cold binding buffer (10 mM NaH2PO4, 10 mM Na2HPO4, pH 7.4). Filter plates were subsequently dried at 50° C. for 2-3 hours. Fifty μl/well scintillation cocktail (Perkin Elmer, Shelton, Conn.) was added and plates were counted in a Packard Top-Count for 1 min/well.
(§8) GTP EC50 is the concentration of a compound providing 50% of the maximal response for the compound at a κ receptor.
(§9) κ GTP Emax (%) is the maximal effect elicited by a compound relative to the effect elicited by U69,593.
as §4

[5] = target: T2, κ opioid receptor; assay: κ-opioid receptor [35S]GTPγS functional assay (HEK); format: biochemical; conditions: for Emax: HEK, GTPγS, relative to U69,593
Description: as §7, §8, §9, §5

[6] = target: T1, μ-opioid receptor; assay: μ-opioid receptor radioligand dose-displacement binding assay (HEK); conditions: HEK cells; [3H]-diprenorphine
Description: Radioligand dose-displacement binding assays for μ-opioid receptors used 0.3 nM [^3H]-diprenorphine (Perkin Elmer, Shelton, Conn.), with […] membrane protein/well in a final volume of 500 μl binding buffer (10 mM MgCl2, 1 mM EDTA, 5% DMSO, 50 mM HEPES, pH 7.4). Reactions were carried out in the absence or presence of increasing concentrations of unlabeled naloxone. All reactions were conducted in 96-deep well polypropylene plates for 2 hours at room temperature. Binding reactions were terminated by rapid filtration onto 96-well Unifilter GF/C filter plates (Perkin Elmer, Shelton, Conn.), presoaked in 0.5% polyethylenimine using a 96-well tissue harvester (Perkin Elmer, Shelton, Conn.) followed by performing three filtration washes with 500 μl of ice-cold binding buffer. Filter plates were subsequently dried at 50° C. for 2-3 hours. BetaScint scintillation cocktail (Perkin Elmer, Shelton, Conn.) was added (50 μl/well), and plates were counted using a Packard Top-Count for 1 min/well. The data were analyzed using the one-site competition curve fitting functions in GraphPad PRISM™ v. 3.0 or higher (San Diego, Calif.), or an in-house function for one-site competition curve-fitting.
as §6

SMILES: COc1ccc2c(c1)[C@]13CCN(CC4CC4)[C@H](C2)[C@]1(O)C[C@H]1CC(=O)N[C@H]1C3 [Compound 1, (6R,6aS,7aS,10aS,11aR)-14-(cyclopropylmethyl)-6a-hydroxy-2-methoxy-5,6,6a,7,7a,8,10a,11-octahydro-6,11a-(epiminoethano)naphtho[2,1-f]indol-9(10H)-one]
- EC50 [1]: 223 ± 42 nM
- Emax [1]: 81.7 ± 3.33%
- EC50 [2]: 821 ± 190 nM
- Emax [2]: 25.8 ± 0.48%
- Ki [3]: 12.4 ± 3.09 nM
- EC50 [4]: 66.9 ± 3.47 nM
- Emax [4]: 99 ± 1.53%
- EC50 [5]: 1770 ± 713 nM
- Emax [5]: 77 ± 8.19%
- Ki [6]: 533 ± 170 nM

SMILES: O=C1C[C@@H]2C[C@@]3(O)[C@H]4Cc5ccc(O)cc5[C@@]3(CCN4CCc3ccccc3)C[C@@H]2N1 [Compound 5, (6R,6aS,7aS,10aS,11aR)-2,6a-dihydroxy-14-phenethyl-5,6,6a,7,7a,8,10a,11-octahydro-6,11a-(epiminoethano)naphtho[2,1-f]indol-9(10H)-one]
- EC50 [2]: 1.94 ± 0.073 nM
- Emax [2]: 99.7 ± 2.03%
- Ki [3]: 4.03 ± 0.7 nM
- EC50 [5]: > 20000 nM
- Emax [5]: -0.25 ± 0.75%

SMILES: O=C1C=C2C[C@@]3(O)[C@H]4Cc5ccc(O)cc5[C@@]3(CCN4CC3CC3)CC2N1 (stereo partly drawn) [Compound 9, (6R,6aS,11aR)-14-(cyclopropylmethyl)-2,6a-dihydroxy-5,6,6a,7,10a,11-hexahydro-6,11a-(epiminoethano)naphtho[2,1-f]indol-9(10H)-one]
- EC50 [1]: 6.35 ± 1.74 nM
- Emax [1]: 19.5 ± 0.29%
- EC50 [2]: > 20000 nM
- Emax [2]: 1%
- Ki [3]: 2.16 ± 0.45 nM
- EC50 [4]: 4.96 ± 0.59 nM
- Emax [4]: 87.5 ± 6.44%
- EC50 [5]: 7.24 ± 1.69 nM
- Emax [5]: 27.2 ± 3.45%
- Ki [6]: 2.34 ± 0.27 nM

SMILES: O=C1C[C@@H]2C[C@@]3(O)[C@H]4Cc5ccc(O)cc5[C@@]3(CCN4CC3CC3)C[C@@H]2N1 [Compound 10, (6R,6aS,7aS,10aS,11aR)-14-(cyclopropylmethyl)-2,6a-dihydroxy-5,6,6a,7,7a,8,10a,11-octahydro-6,11a-(epiminoethano)naphtho[2,1-f]indol-9(10H)-one]
- EC50 [1]: 1.59 ± 0.19 nM
- Emax [1]: 46 ± 1%
- EC50 [2]: > 20000 nM
- Emax [2]: 0%
- Ki [3]: 0.16 ± 0.017 nM
- EC50 [4]: 0.42 ± 0.027 nM
- Emax [4]: 112 ± 2.65%
- EC50 [5]: 1 ± 0.18 nM
- Emax [5]: 76.2 ± 5.39%
- Ki [6]: 0.8 ± 0.1 nM

SMILES: CCN1C(=O)C[C@@H]2C[C@@]3(O)[C@H]4Cc5ccc(O)cc5[C@@]3(CCN4CC3CC3)C[C@@H]21 [Compound 16, (6R,6aS,7aS,10aS,11aR)-14-(cyclopropylmethyl)-10-ethyl-2,6a-dihydroxy-5,6,6a,7,7a,8,10a,11-octahydro-6,11a-(epiminoethano)-naphtho[2,1-f]indol-9(10H)-one]
- EC50 [2]: 4.18 ± 0.61 nM
- Emax [2]: 20 ± 0.91%
- Ki [3]: 0.31 ± 0.085 nM
- EC50 [5]: 0.66 ± 0.059 nM
- Emax [5]: 49.7 ± 2.19%
